Earlier results as cited in US20220351806A1, “Biomarker Panels for Guiding Dysregulated Host Response Therapy” (Endpoint Health Inc., priority 2019, published 2022).

Key:
acid-induced lung injury = settings: rats, cited from earlier work
[1] = tested on: shock events induced by endotoxin; settings: rats, preventive administration, injected endotoxin; cited from earlier work
[2] = tested on: oncologic and lymphopenic patients; settings: over 390 oncologic and lymphopenic patients; cited from earlier work
septic animals = settings: exogenous TFPI expressed in mammalian cells and/or Escherichia coli; cited from earlier work

For `CCOC(=O)[C@H](Cc1ccccc1)NC(=O)c1cc(Cl)c(OCCN2CCN(C)CC2)c(Cl)c1O.Cl.Cl` [JTE 607], the “production of inflammatory cytokines (tumor necrosis factor-alpha, interleukin-6, cytokine-induced neutrophil chemoattractant)” value (acid-induced lung injury; acid-induced lung injury) is given as “inhibit the production” and the acid-induced lung injury (acid-induced lung injury) is given as “attenuate acid-”.
In the case of `CC1C(=O)OC2C(O)C34C5CC(C(C)(C)C)C36C(OC(=O)C6O)OC4(C(=O)O5)C12O` (stereo not drawn) [BN 52021], the “release of thromboxane and prostaglandin factor 1-α (PGF1-α)” value [1] is listed as “reduced”.
In the case of CYT-107, the immunity [2] is listed as “counts, and improved” and the safety [2] is listed as “safe, invariably”.
For tifacogin, the “outcome in septic animals” value (septic animals) is listed as “coli improved”.
